# Laboratory results from patent US20230338454A1, “FORSYTHIA SUSPENSA COMPONENT AND OPTIONAL PANAX GINSENG COMPONENT AND THE APPLICATION” (priority 2020, published 2023).
# Where two headings read alike, the source gives them in different places. Marks after values point to notes of the source that are not given here.
# Columns and labels:
# HCMV AD169 strain = assay: Inhibitory effect on HCMV in vitro (MEC, therapeutic index); type: cell-based, human cytomegalovirus; conditions: HCMV AD169, 100 times TCD50, 10 days of culture
# Experimental: Human embryonic lung fibroblast cell strain (purchased from Sino Best Biological Technology Co., Ltd.). The cells were cultured and subcultured according to the conventional method.
# HCMV AD169 strain was purchased from American Type Culture Collection (ATCC).
# Cells were inoculated in a 96-well plate, allowed to grow into monolayers, and inoculated with a virus challenge of 100 times TCD50. Starting from TD0, each drug was diluted stepwise according to 10-fold gradient to prepare 5 concentrations, with 4 wells set for each concentration. In addition, 4 wells of normal cell control and 4 wells of virus control were set.
# [1] = system: Human embryonic lung fibroblast cell strain
# [2] = system: carrageenan-induced paw swelling; assay: Carrageenan-induced paw swelling in rats; type: in vivo, Wistar rats; conditions: 100 mg/kg, sublingual intravenous injection
# Experimental: Each group was administered by sublingual intravenous injection. Before the study, the normal volume of the right hind limb was measured by the capillary magnification method. To avoid errors, the measurement position should be fixed and performed by one person before and after administration. The average of the two measurements was taken as the normal volume of the right hind limb of the rats prior to administration. […] The inter-group t-test was performed by the difference percentage (swelling rate) of the plantar volume before and after the inflammation induction, and the differences among the groups were compared.
# [3] = system: Coxsackievirus A16 (CoxA16); assay: Effect of drugs on viral cytopathic effect, effective antiviral rate (ER%); type: cell-based; conditions: Vero cells, 100TCID50, drug at maximum non-toxic concentration, 72 h, MTT
# [4] = system: Herpes simplex virus type 1 (HSV-1); assay: as above; type: cell-based; conditions: Vero cells, 100TCID50, drug at maximum non-toxic concentration, 72 h, MTT
# influenza virus [5] = type: in vivo, Kunming mice; conditions: lung suspension, mice infected with influenza virus, 5 days
# parainfluenza virus [6] = type: in vivo, Kunming mice; conditions: […], 5 days
# Parainfluenza virus [7] = assay: Effect of drugs on viral cytopathic effect, effective antiviral rate (ER%); type: cell-based; conditions: Vero cells, 100TCID50, drug at maximum non-toxic concentration, 72 h, MTT
# Adenovirus (AdV) = assay: as above; type: cell-based; conditions: Vero cells, 100TCID50, drug at maximum non-toxic concentration, 72 h, MTT
# Coxsackievirus B3 (CVB3) = assay: as above; type: cell-based; conditions: Vero cells, 100TCID50, drug at maximum non-toxic concentration, 72 h, MTT
# Vero cells = assay: Cytotoxicity test of drugs on Vero cells (MTT); conditions: 72 h
# enterovirus 71 (EV71) = assay: Effect of drugs on viral cytopathic effect, effective antiviral rate (ER%); type: cell-based; conditions: Vero cells, 100TCID50, drug at maximum non-toxic concentration, 72 h, MTT
# parainfluenza virus [8] = type: in vivo, Kunming mice; conditions: mice infected with parainfluenza virus
# [9] = system: respiratory syncytial virus (RSV); assay: Effect of drugs on viral cytopathic effect, effective antiviral rate (ER%); type: cell-based; conditions: Vero cells, 100TCID50, drug at maximum non-toxic concentration, 72 h, MTT
# Influenza virus [10] = assay: as above; type: cell-based
# influenza virus [11] = type: in vivo, Kunming mice
# [12] = system: fever induced by beer yeast; assay: Fever induced by beer yeast in rats; type: in vivo, Wistar rats; conditions: 100 mg/kg
# [13] = system: sweat secretion of rat paw; assay: Sweat secretion of rat paw (staining method); type: in vivo, Wistar rats; conditions: of 10 rats; 35.0 mg/kg subcutaneous
# Source text: There are sweat glands on the plantar skin of rats, so the changes in sweat secretion can be observed by the purple reaction between the iodine-starch mixture and the sweat. Five hundred Wistar rats, half male and half female, weighing 120-150 g, were taken in the study. […] The rats were placed in a homemade rat-fixing bag to expose both hind limbs. The dirt on the right paw was gently scrubbed with a cotton swab dipped in absolute ethanol. Except for the pilocarpine solution, which was given by subcutaneous injection, other groups were administered by gavage. One hour after administration (30 min after administration in the pilocarpine group), the sweat secreted from the right paw of rats in each group was gently cleaned with a dry cotton swab before the study and during struggling. The right paw was coated with Wotan-[…] reagent A solution (dissolve 2 g of iodine in 100 mL of absolute ethanol) and then coated with Wotan-[…] reagent B solution (mix 50 g of soluble starch and 100 mL of Ricinus conununis oil well) after reagent A was fully absorbed. […] At the end of the test, a rank-sum test was used to analyze the differences among the groups.
# [14] = system: epithelial cells of plantar sweat glands of rats; assay: Sweat secretion of rat paw (histomorphology observation method); type: in vivo, Wistar rats; conditions: 30 min after 35.0 mg/kg subcutaneous
# Source text: After sweat glands activation in rats, besides the increase of sweat secretion, the morphology of the epithelial cells of the sweat glands changes accordingly. Under the optical microscope, the increase and enlargement of vacuoles in the epithelial cells of the sweat glands are observed. Under an electron microscope, the enlarged vacuoles appear to be due to swelling and rupture of mitochondria, enlargement of fusion and secretory vesicles in the epithelial cells of sweat glands. The secretory activity of sweat glands could be understood by observing the histomorphology of the epithelial cells of plantar sweat glands of rats. Three hundred Wistar rats, half male and half female, weighing 120-160 g. were taken in the study. […] Except for the pilocarpine solution given by subcutaneous injection, other groups were administered by gavage. One hour after the control group was given 0.5% carboxymethyl cellulose, 30 min after the positive drug group was given pilocarpine, and 1 h after the administration of forsythin, ginsenoside Rg3 and the panax ginseng-forsythia suspensa composition, the right hind limb was immediately cut off at the level of the ankle joint. […] Observations were made under an optical microscope for changes in the epithelial cells of the plantar sweat glands of rats in each group, mainly the incidence of vacuoles. The statistical processing was performed by X^2 test, and differences among the groups were compared. The above study was repeated for 3 times.
# [15] = 19.5 mg/kg/day by gavage, 5 days
# [16] = mice infected with influenza virus, 19.5 mg/kg/day by gavage, 5 days
smiles,measurement,setting,value
"COc1ccc(C2OCC3C(c4ccc(OC5OC(C(=O)O)C(O)C(O)C5O)c(O)c4)OCC23)cc1OC [9-Hydroxy-phillygenin glucuronide, 9-hydroxy phillygenin-8-O-β-D-glucuronide]",Minimum effective concentration MEC,HCMV AD169 strain,0.4 mg/L
same,Maximum non-toxic concentration TD0,[1],40 mg/L
"COc1cc(C2OCC3C(c4ccc5c(c4)OCO5)OCC23)ccc1OC1OC(C(=O)O)C(O)C(O)C1O [33, 34-methylenedioxy phillygenin-8-O-β-D-glucuronide]",Minimum effective concentration MEC,HCMV AD169 strain,0.4 mg/L
same,Maximum non-toxic concentration TD0,[1],40 mg/L
"COc1cc(C2OCC3C(c4ccc(OC5OC(C(=O)O)C(O)C(O)C5O)c(OC)c4)OCC23)ccc1O [33-Hydroxy-phillygenin glucuronide, 33-hydroxy phillygenin-8-O-β-D-glucuronide]",Minimum effective concentration MEC,HCMV AD169 strain,0.3 mg/L
same,Maximum non-toxic concentration TD0,[1],30 mg/L
CC(=O)Oc1ccccc1C(=O)O [Aspinn],Swelling rate (%) 15 min,[2]; 15 min after inflammation induction,8.90±6.70^∗ %
same,Swelling rate (%) 30 min,[2]; 30 min after inflammation induction,15.6±12.2^∗ %
same,Swelling rate (%) 60 min,[2]; 60 min after inflammation induction,20.3±10.9^∗ %
same,Swelling rate (%) 120 min,[2]; 120 min after inflammation induction,21.6±12.1^∗∗ %
same,Swelling rate (%) 180 min,[2]; 180 min after inflammation induction,26.1±21.1^∗∗ %
same,Swelling rate (%) 240 min,[2]; 240 min after inflammation induction,26.1±16.3^∗∗ %
same,Swelling rate (%) 300 min,[2]; 300 min after inflammation induction,34.9±14.6^∗ %
same,Swelling rate (%) 360 min,[2]; 360 min after inflammation induction,31.9±12.2^∗ %
"Nc1nc(O)c2ncn(COC(CO)CO)c2n1 [Ganciclovir (GCV), Ganciclovir, reference compound]",Minimum effective concentration MEC,HCMV AD169 strain,10 mg/L
same,Maximum non-toxic concentration TD0,[1]; human,10 mg/L
"CCOC(=O)C1=C[C@@H](OC(CC)CC)[C@H](NC(C)=O)[C@@H](N)C1 [Oseltamivir Phosphate, reference compound]",Effective Antiviral Rates (ER%) CoxA16,[3],2.95%
same,Effective Antiviral Rates (ER%) HSV-I,[4],66.56** %
same,Hemagglutinin titer (InX),influenza virus [5]; 19.5 mg/kg/day by gavage,20.50±1.123
same,Inhibitory rate (%) of hemagglutination titer,influenza virus [5]; 19.5 mg/kg/day by gavage,36.73%
same,Hemagglutinin titer (InX),parainfluenza virus [6]; 19.5 mg/kg/day by gavage,22.05±1.055
same,Inhibitory rate (%) of hemagglutination titer,parainfluenza virus [6]; 19.5 mg/kg/day by gavage,33.40%
same,Effective Antiviral Rates (ER%) Parainfluenza virus,Parainfluenza virus [7],94.52** %
same,Effective Antiviral Rates (ER%) ADV,Adenovirus (AdV),10.31%
same,Effective Antiviral Rates (ER%) CVB3,Coxsackievirus B3 (CVB3),1.64%
same,Half toxic concentration (TC50),Vero cells,832 µg/mL
same,Maximum non-toxic concentration (TC0),Vero cells,0.28 g/L
same,Effective Antiviral Rates (ER%) EV71,enterovirus 71 (EV71),51.86%
same,Lung index (x̅ ±S),parainfluenza virus [8]; [15],1.243±0.054
same,Lung index Inhibitory rate (%),parainfluenza virus [8]; [15],21.85%
same,"Lung index compared with the infection model group, in words",parainfluenza virus [8]; P < 0.05 or P < 0.01,decreased significantly
same,Effective Antiviral Rates (ER%) RSV,[9],37.60%
same,Effective Antiviral Rates (ER%) Influenza virus,"Influenza virus [10]; Vero cells, 100TCID50, drug at maximum non-toxic concentration, 72 h, MTT",81.76** %
same,Lung index (x̅ ±S),influenza virus [11]; [16],1.178±0.066
same,Lung index Inhibitory rate (%),influenza virus [11]; [16],19.84%
same,"Lung index compared with the infection model group, in words","influenza virus [11]; mouse, in vivo",decreased significantly
"CC(=O)Nc1ccc(O)cc1 [Paracetamol, reference compound]","Body temperature change (%) (antipyretic percentage), time post-dose 1 h",[12]; 1 h post-dose,-2.07±0.54^∗∗ %
same,"Body temperature, time post-dose 1 h",[12]; 1 h post-dose,38.66±0.59 °C
same,"Body temperature change (%) (antipyretic percentage), time post-dose 2 h",[12]; 2 h post-dose,-3.27±0.77^∗∗∗ %
same,"Body temperature, time post-dose 2 h",[12]; 2 h post-dose,38.19±0.59 °C
same,"Body temperature change (%) (antipyretic percentage), time post-dose 3 h",[12]; 3 h post-dose,-3.80±1.43^∗∗∗ %
same,"Body temperature, time post-dose 3 h",[12]; 3 h post-dose,37.98±0.19 °C
same,"Body temperature change (%) (antipyretic percentage), time post-dose 4 h",[12]; 4 h post-dose,-4.15±1.59^∗∗∗ %
same,"Body temperature, time post-dose 4 h",[12]; 4 h post-dose,37.84±0.32 °C
"CC[C@@H]1C(=O)OC[C@@H]1Cc1cncn1C [Pilocarpine, reference compound]",Number of animals with sweat spots of each grade at 1 min after application of solution B: grade +,[13],1 animals
same,Number of animals with sweat spots of each grade at 1 min after application of solution B: grade ++,[13],3 animals
same,Number of animals with sweat spots of each grade at 1 min after application of solution B: grade +++,[13],1 animals
same,Number of animals with sweat spots of each grade at 1 min after application of solution B: grade +++ (fifth grade column),[13],5 animals
same,Number of animals with sweat spots of each grade at 1 min after application of solution B: grade -,[13],0 animals
same,Number of animals with sweat spots of each grade at 5 min after application of solution B: grade +,[13],1 animals
same,Number of animals with sweat spots of each grade at 5 min after application of solution B: grade ++,[13],2 animals
same,Number of animals with sweat spots of each grade at 5 min after application of solution B: grade +++,[13],1 animals
same,Number of animals with sweat spots of each grade at 5 min after application of solution B: grade +++ (fifth grade column),[13],6 animals
same,Number of animals with sweat spots of each grade at 5 min after application of solution B: grade -,[13],0 animals
same,Number of vacuolar sweat glands (number),[14],57 number
same,Vacuolation rate (%),[14],27.40^∗∗∗ %
"NC(=O)c1ncn([C@@H]2O[C@H](CO)[C@@H](O)[C@H]2O)n1 [Ribavirin, reference compound]",Effective Antiviral Rates (ER%) CoxA16,[3],0.70%
same,Effective Antiviral Rates (ER%) HSV-I,[4],62.92** %
same,Hemagglutinin titer (InX),influenza virus [5]; 58.5 mg/kg/day by gavage,21.91±1.050
same,Inhibitory rate (%) of hemagglutination titer,influenza virus [5]; 58.5 mg/kg/day by gavage,32.39%
same,Hemagglutinin titer (InX),parainfluenza virus [6]; 58.5 mg/kg/day by gavage,23.22±1.091
same,Inhibitory rate (%) of hemagglutination titer,parainfluenza virus [6]; 58.5 mg/kg/day by gavage,29.86%
same,Effective Antiviral Rates (ER%) Parainfluenza virus,Parainfluenza virus [7],91.56** %
same,Effective Antiviral Rates (ER%) ADV,Adenovirus (AdV),0.43%
same,Effective Antiviral Rates (ER%) CVB3,Coxsackievirus B3 (CVB3),13.44%
same,Effective Antiviral Rates (ER%) EV71,enterovirus 71 (EV71),4.25%
same,Effective Antiviral Rates (ER%) RSV,[9],50.08* %
same,Effective Antiviral Rates (ER%) Influenza virus,Influenza virus [10],57.49** %
